Read-outs that look alike come from different tables or passages of the source.
What was measured:
Assay type in all cases: in vivo
[1] = test system: large crabgrass (Digitaria sanguinalis); assay: Test C pre-/postemergence: large crabgrass
Outline: (§1)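 Visual injury scored 0–100 (100 = complete control) against untreated controls after 13–15 greenhouse days. Surfactant-containing solvent formulations applied either to soil after sowing (loam/sand) or over 1- to 4-leaf plants, 2–18 cm tall.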

[2] = test system: johnsongrass (Sorghum halepense); assay: Test C pre-/postemergence: johnsongrass
Text: (§2) Seeds of plant species selected from blackgrass (Alopecurus myosuroides), bromegrass, downy (downy bromegrass, Bromus tectorum), foxtail, green (green foxtail, Setaria viridis), ryegrass, Italian (Italian ryegrass, Lolium multiflorum), winter wheat (Triticum aestivum), wild oat (Avena fatua), galium (catchweed bedstraw, Galium aparine), bermudagrass (Cynodon dactylon), surinam grass (Brachiaria decumbens), cocklebur (common cocklebur, Xanthium strumarium), corn (Zea mays), large crabgrass (Digitaria sanguinalis), woolly cupgrass (Eriochloa villosa), foxtail, giant (giant foxtail, Setaria faberii), goosegrass (Eleusine indica), johnsongrass (Sorghum halepense), kochia (Kochia scoparia), lambsquarters (Chenopodium album), morningglory (Ipomoea coccinea), nightshade (eastern black nightshade, Solanum ptycanthum), nutsedge, yellow (yellow nutsedge, Cyperus esculentus), pigweed (Amaranthus retroflexus), ragweed (common ragweed, Ambrosia elation), soybean (Glycine max), common (oilseed) sunflower (Helianthus annuus), Russian thistle (Salsola kali) and velvetleaf (Abutilon theophrasti) were planted into a blend of loam soil and sand and treated preemergence with test chemicals formulated in a non-phytotoxic solvent mixture which included a surfactant.
(§3) At the same time, plants selected from these crop and weed species and also barley (winter barley, Hordeum vulgare), canarygrass (Phalaris minor), chickweed (common chickweed, Stellaria media) windgrass (Apera spica-venti) and deadnettle (henbit deadnettle, Lamium amplexicaule) were planted in pots containing Redi-Earth® planting medium (Scotts Company, 14111 Scottslawn Road, Marysville, Ohio 43041) comprising spaghnum peat moss, vermiculite, wetting agent and starter nutrients and treated with postemergence applications of test chemicals formulated in the same manner. Plants ranged in height from 2 to 18 cm (1- to 4-leaf stage) for postemergence treatments.
(§4) Treated plants and controls were maintained in a greenhouse for 13 to 15 days, after which time all species were compared to controls and visually evaluated. Plant response ratings, summarized in Table C, are based on a scale of 0 to 100 where 0 is no effect and 100 is complete control. A dash (-) response means no test result.

[3] = test system: ragweed (common ragweed, Ambrosia elation); assay: Test C pre-/postemergence: ragweed
Outline: as §1

kochia (Kochia scoparia) = assay: Test C pre-/postemergence: kochia
Text: as §2, §3, §4

[4] = test system: galium (catchweed bedstraw, Galium aparine); assay: Test C pre-/postemergence: galium
Text: as §2, §3, §4

corn (Zea mays) = assay: Test C pre-/postemergence: corn
Outline: as §1

[5] = test system: velvetleaf (Abutilon theophrasti); assay: Test C pre-/postemergence: velvetleaf
Text: as §2, §3, §4

[6] = test system: velvetleaf (Abutilon theophrasti); assay: Test A pre-/postemergence: velvetleaf; details: Abutilon theophrasti, 240 h; for pest or weed control at 125 g/ha: 125 g ai/ha; for pest or weed control at 500 g/ha: 500 g ai/ha
Outline: (§5)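 Injury was scored visually on a 0 (no effect) to 100 (complete control) scale versus untreated controls roughly ten days after treatment in the greenhouse. Compounds, formulated in surfactant-containing non-phytotoxic solvent, went on as soil-directed preemergence spray or postemergence to one- to two-leaf plants 2–10 cm tall.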

[7] = test system: blackgrass (Alopecurus myosuroides); assay: Test C pre-/postemergence: blackgrass
Outline: as §1

wild oat (Avena fatua) = assay: Test C pre-/postemergence: wild oat
Text: as §2, §3, §4

[8] = test system: pigweed (Amaranthus retroflexus); assay: Test C pre-/postemergence: pigweed
Text: as §2, §3, §4

[9] = test system: morningglory (Ipomoea spp.); assay: Test A pre-/postemergence: morningglory; details: Ipomoea, 240 h; for pest or weed control at 125 g/ha: 125 g ai/ha; for pest or weed control at 500 g/ha: 500 g ai/ha
Outline: as §5

[10] = Postemergence, 31 g ai/ha, scale 0 to 100 (0 no effect, 100 complete control)
[11] = Postemergence, 62 g ai/ha, scale 0 to 100 (0 no effect, 100 complete control)
[12] = Postemergence, 125 g ai/ha, scale 0 to 100, 0 no effect, 100 complete control
[13] = Postemergence, 250 g ai/ha, scale 0 to 100
[14] = Preemergence, 31 g ai/ha, scale of 0 to 100, 0 is no effect, 100 is complete control
[15] = Preemergence, 62 g ai/ha, scale of 0 to 100, 0 is no effect, 100 is complete control
[16] = Preemergence, 125 g ai/ha, scale 0 to 100, 0 no effect, 100 complete control
[17] = Preemergence, 250 g ai/ha, scale 0 to 100, 0 no effect, 100 complete control
[18] = Preemergence, 62 g ai/ha, scale 0 to 100, 0 no effect, 100 complete control

Cc1nn(-c2ccc(C(F)(F)F)cc2)nc1Cc1ccnc(C(F)(F)F)c1 [Compound 47, 4-[[5-methyl-2-[4-(trifluoromethyl)phenyl]-2H-1,2,3-triazol-4-yl]methyl]-2-(trifluoromethyl)pyridine]
80%: pest or weed control at 125 g/ha ([6]; pre-emergence, Preemergence, 0 to 100 scale (0 no effect, 100 complete control), read-out: Plant response rating, Velvetleaf) | pest or weed control at 500 g/ha ([9]; pre-emergence, Preemergence, 0 to 100 scale, 0 is no effect, 100 is complete control, read-out: Plant response rating, Morningglory)
10: Plant response rating, Johnsongrass [2, 11] | Plant response rating, Johnsongrass [2, 15] | Plant response rating, Corn (corn (Zea mays); [16])
80: Plant response rating, Ragweed [3, 17] | Plant response rating, Galium [4, 10] | Plant response rating, Galium [4, 11] | Plant response rating, Velvetleaf [5, 12] | Plant response rating, Oat, Wild (wild oat (Avena fatua); [14])
75: Plant response rating, Ragweed [3, 12]
45: Plant response rating, Crabgrass, Large [1, 14] | Plant response rating, Ragweed [3, 10] | Plant response rating, Ragweed [3, 16] | Plant response rating, Velvetleaf [5, 14] | Plant response rating, Blackgrass [7, 11]
5: Plant response rating, Crabgrass, Large [1, 10] | Plant response rating, Johnsongrass [2, 14] | Plant response rating, Ragweed [3, 14] | Plant response rating, Corn (corn (Zea mays); [10]) | Plant response rating, Corn (corn (Zea mays); [18])
15: Plant response rating, Crabgrass, Large [1, 11] | Plant response rating, Ragweed [3, 15] | Plant response rating, Corn (corn (Zea mays); [11]) | Plant response rating, Corn (corn (Zea mays); [12])
70%: pest or weed control at 125 g/ha ([9]; pre-emergence, Preemergence, 0 to 100 scale (0 no effect, 100 complete control), read-out: Plant response rating, Morningglory)
65: Plant response rating, Ragweed [3, 11] | Plant response rating, Kochia (kochia (Kochia scoparia); [10]) | Plant response rating, Velvetleaf [5, 10]
100%: pest or weed control at 125 g/ha ([6]; post-emergence, Postemergence, 0 to 100 scale, 0 is no effect, 100 is complete control, read-out: Velvetleaf plant response rating) | pest or weed control at 500 g/ha ([6]; post-emergence, Postemergence, visual rating on 0 to 100 scale (0 no effect, 100 complete control), approximately ten days, read-out: Velvetleaf plant response rating) | pest or weed control at 500 g/ha ([6]; pre-emergence, Preemergence, 0 to 100 scale, 0 is no effect, 100 is complete control, read-out: Plant response rating, Velvetleaf)
90: Plant response rating, Kochia (kochia (Kochia scoparia); [15]) | Plant response rating, Velvetleaf [5, 13] | Plant response rating, Velvetleaf [5, 16] | Plant response rating, Blackgrass [7, 13] | Plant response rating, Blackgrass [7, 14] | Plant response rating, Oat, Wild (wild oat (Avena fatua); [13]) | Plant response rating, Oat, Wild (wild oat (Avena fatua); [15]) | Plant response rating, Oat, Wild (wild oat (Avena fatua); [16])
98: Plant response rating, Crabgrass, Large [1, 15] | Plant response rating, Kochia (kochia (Kochia scoparia); [16]) | Plant response rating, Kochia (kochia (Kochia scoparia); [17]) | Plant response rating, Galium [4, 13] | Plant response rating, Blackgrass [7, 18]
50: Plant response rating, Crabgrass, Large [1, 13] | Plant response rating, Johnsongrass [2, 13]
95: Plant response rating, Johnsongrass [2, 17] | Plant response rating, Ragweed [3, 13] | Plant response rating, Galium [4, 12]
35: Plant response rating, Crabgrass, Large [1, 12] | Plant response rating, Johnsongrass [2, 12] | Plant response rating, Oat, Wild (wild oat (Avena fatua); [10])
100: Plant response rating, Crabgrass, Large [1, 16] | Plant response rating, Crabgrass, Large [1, 17] | Plant response rating, Galium [4, 15] | Plant response rating, Galium [4, 16] | Plant response rating, Galium [4, 17] | Plant response rating, Velvetleaf [5, 17] | Plant response rating, Blackgrass [7, 16] | Plant response rating, Blackgrass [7, 17] | Plant response rating, Oat, Wild (wild oat (Avena fatua); [17]) | Plant response rating, Pigweed [8, 10] | Plant response rating, Pigweed [8, 11] | Plant response rating, Pigweed [8, 12] | Plant response rating, Pigweed [8, 13] | Plant response rating, Pigweed [8, 14] | Plant response rating, Pigweed [8, 15] | Plant response rating, Pigweed [8, 16] | Plant response rating, Pigweed [8, 17]
70: Plant response rating, Velvetleaf [5, 11]
60: Plant response rating, Johnsongrass [2, 16] | Plant response rating, Velvetleaf [5, 15] | Plant response rating, Blackgrass [7, 12]
0: Plant response rating, Johnsongrass [2, 10] | Plant response rating, Corn (corn (Zea mays); [14])
85: Plant response rating, Kochia (kochia (Kochia scoparia); [14]) | Plant response rating, Galium [4, 14] | Plant response rating, Oat, Wild (wild oat (Avena fatua); [12])
40: Plant response rating, Corn (corn (Zea mays); [17]) | Plant response rating, Blackgrass [7, 10]
90%: pest or weed control at 125 g/ha ([9]; post-emergence, Postemergence, 0 to 100 scale, 0 is no effect, 100 is complete control, read-out: Morningglory plant response rating) | pest or weed control at 500 g/ha ([9]; post-emergence, Postemergence, visual rating on 0 to 100 scale (0 no effect, 100 complete control), approximately ten days, read-out: Morningglory plant response rating)
25: Plant response rating, Corn (corn (Zea mays); [13])

From US9302999B2, “Substituted triazoles as herbicides” (E. I. DU PONT DE NEMOURS AND COMPANY, priority 2012, dated 2016)
